For series [1], the target named is CYP1A2 (Homo sapiens (Human), UniProt P05177). The series is described as follows: CYP450 enzyme inhibition test, human liver microsomes. Particulars: incubation concentration 0-50/100 μM. The format is in vitro ADME. How it is done: (§1) 6. CYP450 Enzyme Inhibition Test
(§2) The purpose of this study was to evaluate the effect of the test compound on the activity of five isoenzymes (CYP1A2, CYP2C9, CYP2C19, CYP2D6 and CYP3A4) of human liver microsomal cytochrome P450 (CYP) by using an in vitro testing system. The specific probe substrates of CYP450 isoenzymes were incubated with human liver microsomes and test compounds of different concentrations, and reduced nicotinamide adenine dinucleotide phosphate (NADPH) was added to initiate the reaction. After the completion of the reaction, the sample was treated and liquid chromatography-tandem mass spectrometry (LC-MS/MS) was used to quantitatively detect metabolites produced by specific substrates, changes in CYP enzyme activity were determined, and IC50 value was calculated to evaluate the inhibitory potential of the test compound on each CYP enzyme subtype.
For orientation: Liver microsomes are vesicles of endoplasmic reticulum, rich in cytochrome P450 enzymes.

Series [2] deals with CYP2D6 (Homo sapiens (Human), UniProt P10635). The series is described as above. The format is in vitro ADME. The conditions noted are these: incubation concentration 0-50/100 μM. How it is done: as §1, §2
Sequence of CYP2D6 (P10635 whole entry): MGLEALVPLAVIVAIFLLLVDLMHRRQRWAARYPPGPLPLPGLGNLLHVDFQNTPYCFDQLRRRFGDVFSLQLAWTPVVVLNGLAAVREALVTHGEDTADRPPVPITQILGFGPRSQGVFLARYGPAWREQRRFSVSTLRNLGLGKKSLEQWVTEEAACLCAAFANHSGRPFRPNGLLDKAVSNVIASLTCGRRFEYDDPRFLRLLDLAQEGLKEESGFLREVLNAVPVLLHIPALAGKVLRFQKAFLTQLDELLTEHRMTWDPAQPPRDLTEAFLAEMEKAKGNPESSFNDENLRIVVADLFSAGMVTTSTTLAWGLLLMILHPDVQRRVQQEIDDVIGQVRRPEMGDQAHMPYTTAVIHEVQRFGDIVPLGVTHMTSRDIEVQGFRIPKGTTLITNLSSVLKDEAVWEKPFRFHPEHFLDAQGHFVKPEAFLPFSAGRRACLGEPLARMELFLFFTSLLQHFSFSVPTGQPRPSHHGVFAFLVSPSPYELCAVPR
Series [3] addresses CYP3A4 (Homo sapiens (Human), UniProt P08684). Described as above. The format is in vitro ADME. The conditions noted are these: incubation concentration 0-50/100 μM, read-out: IC50 CYP3A-M. How it is done:
as §1, §2

The target of series [4] is CYP2C9 (Homo sapiens (Human), UniProt P11712). The description is as above. The format is in vitro ADME. The conditions noted are these: incubation concentration 0-50/100 μM. How it is done: as §1, §2
Sequence of CYP2C9 (P11712 whole entry): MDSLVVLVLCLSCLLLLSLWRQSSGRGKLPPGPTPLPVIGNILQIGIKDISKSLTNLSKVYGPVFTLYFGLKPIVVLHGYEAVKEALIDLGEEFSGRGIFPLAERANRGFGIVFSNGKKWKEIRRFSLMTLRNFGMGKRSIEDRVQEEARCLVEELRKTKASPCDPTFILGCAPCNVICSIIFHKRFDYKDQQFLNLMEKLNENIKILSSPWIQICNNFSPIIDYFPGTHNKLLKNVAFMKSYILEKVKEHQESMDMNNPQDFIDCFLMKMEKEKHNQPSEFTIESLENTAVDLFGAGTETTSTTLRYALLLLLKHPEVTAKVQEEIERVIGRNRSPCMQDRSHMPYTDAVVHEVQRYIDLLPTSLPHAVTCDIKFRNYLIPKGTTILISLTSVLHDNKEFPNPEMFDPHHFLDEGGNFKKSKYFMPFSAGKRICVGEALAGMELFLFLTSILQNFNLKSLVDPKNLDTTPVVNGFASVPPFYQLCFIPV
A short description of series [5]: Pharmacokinetic test in rats. The format is in vivo. Particulars: male, SD, rat, plasma; for Vd: read-out: Vdss. How it is done: 3. Pharmacokinetic Test in Rats
3.1 Experimental animals: male SD rats, about 220 g, 6-8 weeks old, 6 rats/compound, purchased from Chengdu Ddossy Experimental Animals Co., Ltd.
3.2 Experimental design: on the day of the test, 24 SD rats were randomly grouped according to their body weight; the animals were fasted with water available for 12 to 14 h one day before the administration, and were fed 4 h after the administration;
(DMA: dimethylacetamide; Solutol: Polyethylene glycol-15-hydroxystearate; Saline: Normal saline; MC: methylcellulose)
Before and after the administration, 0.15 ml of blood was taken from the orbit of the animals under isoflurane anesthesia and placed in an EDTAK2 centrifuge tube. The blood was centrifuged at 5000 rpm and 4° C. for 10 min to collect plasma. The blood collection time points for the intravenous administration group and intragastric administration group were: 0, 5 min, 15 min, 30 min, 1 h, 2 h, 4 h, 6 h, 8 h, and 24 h. Before analysis and detection, all samples were stored at −80° C., and a quantitative analysis of samples was performed using LC-MS/MS.

Series [6] can be described thus: Pharmacokinetic test in mice. The format is in vivo. Particulars: male, ICR, mouse, plasma; for Vd: read-out: Vdss. How it is done: 4. Pharmacokinetic Test in Mice
4.1 Experimental animals: male ICR mice, 20-25 g, 18 mice/compound. purchased from Chengdu Ddossy Experimental Animals Co., Ltd.
4.2 Experimental design: on the day of the test, 72 ICR mice were randomly grouped according to their body weights. the animals were fasted with water available for 12 to 14 h one day before the administration, and were fed 4 h after the administration;
Before and after the administration, 0.06 mL of blood was taken from the orbit of the animals under isoflurane anesthesia and placed in an EDTAK2 centrifuge tube. The blood was centrifuged at 5000 rpm and 4° C. for 10 min to collect plasma. The blood collection time points for the intravenous group and intragastric administration […] group were: 0 min, 5 min, 15 min, 30 min, 1 h, 2 h, 4 h, 6 h, 8 h, and 24 h. Before analysis and detection, all samples were stored at −80° C., and a quantitative analysis of samples was performed using LC-MS/MS.

The target of series [7] is hERG potassium ion channel (Homo sapiens (Human), UniProt Q12809). The series is described as follows: Test for hERG potassium ion channel (manual patch-clamp, CHO cells). Format: cell-based. Particulars: for IC50: CHO cells stably expressing hERG, whole cell patch-clamp, read-out: IC50 on hERG potassium channel current; for inhibition at 40 µM: human, CHO cells stably expressing hERG potassium channel, hERG potassium channel current, read-out: Inhibition rate at the highest concentration tested. The text has this: 5. Test for hERG Potassium Ion Channel
Sequence of hERG potassium ion channel (Q12809 whole entry): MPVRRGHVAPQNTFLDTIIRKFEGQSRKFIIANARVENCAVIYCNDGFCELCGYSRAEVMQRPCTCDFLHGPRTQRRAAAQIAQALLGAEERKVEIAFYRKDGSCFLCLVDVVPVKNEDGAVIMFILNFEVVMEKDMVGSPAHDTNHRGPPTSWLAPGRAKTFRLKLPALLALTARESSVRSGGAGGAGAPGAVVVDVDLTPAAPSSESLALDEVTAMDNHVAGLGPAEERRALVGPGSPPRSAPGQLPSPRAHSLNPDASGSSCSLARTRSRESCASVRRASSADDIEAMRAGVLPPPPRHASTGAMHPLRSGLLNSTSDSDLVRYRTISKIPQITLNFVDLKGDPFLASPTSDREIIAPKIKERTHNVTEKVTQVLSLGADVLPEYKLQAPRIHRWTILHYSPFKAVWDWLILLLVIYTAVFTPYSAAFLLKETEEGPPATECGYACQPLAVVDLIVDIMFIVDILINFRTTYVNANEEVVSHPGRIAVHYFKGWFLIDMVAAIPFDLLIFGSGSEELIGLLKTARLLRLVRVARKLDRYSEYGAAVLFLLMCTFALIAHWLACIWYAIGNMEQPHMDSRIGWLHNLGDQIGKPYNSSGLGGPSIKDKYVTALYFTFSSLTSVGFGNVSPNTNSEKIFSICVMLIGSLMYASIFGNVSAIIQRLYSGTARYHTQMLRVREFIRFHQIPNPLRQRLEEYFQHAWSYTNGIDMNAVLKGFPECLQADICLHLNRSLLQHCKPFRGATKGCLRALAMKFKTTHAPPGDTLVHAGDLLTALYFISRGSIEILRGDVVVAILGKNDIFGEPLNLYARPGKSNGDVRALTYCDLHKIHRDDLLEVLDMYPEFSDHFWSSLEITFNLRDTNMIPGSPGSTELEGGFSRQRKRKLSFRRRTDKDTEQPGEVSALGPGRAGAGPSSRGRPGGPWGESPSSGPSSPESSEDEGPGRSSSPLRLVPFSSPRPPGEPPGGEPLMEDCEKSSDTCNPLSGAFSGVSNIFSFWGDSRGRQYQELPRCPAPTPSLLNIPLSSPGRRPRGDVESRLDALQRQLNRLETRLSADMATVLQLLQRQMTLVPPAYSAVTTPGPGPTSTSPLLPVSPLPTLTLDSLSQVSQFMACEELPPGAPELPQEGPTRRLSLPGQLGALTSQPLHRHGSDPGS
Test platform: electrophysiological manual patch-clamp system
Cell line: Chinese hamster ovary (CHO) cell lines stably expressing hERG potassium ion channel Test method: In CHO (Chinese Hamster Ovary) cells stably expressing hERG potassium channel, whole cell patch-clamp technique was used to record hERG potassium channel current at room temperature. The glass microelectrode was made of a glass electrode blank (BF150-86-10, Sutter) by a puller. The tip resistance after filling the liquid in the electrode was about 2-5 MΩ. The glass microelectrode can be connected to the patch-clamp amplifier by inserting the glass microelectrode into an amplifier probe. The clamping voltage and data recording were controlled and recorded by the pClamp 10 software through a computer. The sampling frequency was 10 kHz, and the filtering frequency was 2 kHz. After the whole cell records were obtained, the cells were clamped at −80 mV, and the step voltage that induced the hERG potassium current (I hERG) was depolarized from −80 mV to +20 mV for 2 s, then repolarized to −50 mV, and returned to −80 mV after 1 s. This voltage stimulation was given every 10 s, and the administration process was started after the hERG potassium current was confirmed to be stable (at least 1 minute). The compound was administered for at least 1 minute at each test concentration, and at least 2 cells ([…]) were tested at each concentration.
Data processing: Data analysis processing was carried out by using pClamp 10, GraphPad Prism 5 and Excel software. The inhibition degree of hERG potassium current (peak value of hERG tail current induced at −50 mV) at different compound concentrations was calculated by the following formula:
Inhibition %=[1−(I/Io)]×100% wherein, Inhibition % represents the percentage of inhibition of hERG potassium current by the compound, and I and Io represent the amplitude of hERG potassium current after and before dosing, respectively.
IC50 for the compound was calculated using GraphPad Prism 5 software by fitting according to the following equation:
Y=Bottom+(Top−Bottom)/(1+10^((LogIC50−X)*HillSlope)) wherein, X represents the Log value of the tested concentration of the test sample, Y represents the inhibition percentage at the corresponding concentration, and Bottom and Top represent the minimum and maximum inhibition percentage, respectively.

Sequence of CYP3A4 (P08684 whole entry): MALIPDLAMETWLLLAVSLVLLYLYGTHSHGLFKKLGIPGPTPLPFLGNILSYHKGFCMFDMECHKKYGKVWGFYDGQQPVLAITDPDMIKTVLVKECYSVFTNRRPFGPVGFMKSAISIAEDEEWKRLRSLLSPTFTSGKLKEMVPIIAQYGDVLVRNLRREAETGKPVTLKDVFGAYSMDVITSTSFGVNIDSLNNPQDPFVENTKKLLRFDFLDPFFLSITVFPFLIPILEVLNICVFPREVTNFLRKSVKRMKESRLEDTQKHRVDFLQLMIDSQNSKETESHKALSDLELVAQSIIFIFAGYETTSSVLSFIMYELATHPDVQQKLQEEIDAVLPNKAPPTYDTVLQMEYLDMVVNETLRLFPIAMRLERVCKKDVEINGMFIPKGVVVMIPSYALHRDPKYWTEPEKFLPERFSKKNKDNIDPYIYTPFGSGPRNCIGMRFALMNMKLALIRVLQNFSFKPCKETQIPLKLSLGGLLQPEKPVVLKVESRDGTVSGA
Sequence of CYP1A2 (P05177 whole entry): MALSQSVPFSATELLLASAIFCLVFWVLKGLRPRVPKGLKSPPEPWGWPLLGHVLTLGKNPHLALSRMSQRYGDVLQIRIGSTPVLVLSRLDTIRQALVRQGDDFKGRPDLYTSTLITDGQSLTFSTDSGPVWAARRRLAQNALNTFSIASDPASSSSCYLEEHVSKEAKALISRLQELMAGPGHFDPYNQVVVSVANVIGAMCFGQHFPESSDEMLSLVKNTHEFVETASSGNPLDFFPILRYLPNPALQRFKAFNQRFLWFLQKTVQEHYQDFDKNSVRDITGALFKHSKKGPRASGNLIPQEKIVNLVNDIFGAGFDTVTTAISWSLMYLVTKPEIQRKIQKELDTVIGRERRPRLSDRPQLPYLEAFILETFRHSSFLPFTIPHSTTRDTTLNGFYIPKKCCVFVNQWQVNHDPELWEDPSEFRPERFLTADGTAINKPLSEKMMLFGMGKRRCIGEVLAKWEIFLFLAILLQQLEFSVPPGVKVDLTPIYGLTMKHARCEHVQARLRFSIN

For the compound `C[C@@H]1Cc2c([nH]c3ccc(F)cc23)[C@@H](c2c(F)cc(N[C@H]3CCN(CCCF)C3)cc2F)N1CC(F)(F)F` [Compound 18, (S)—N-(3,5-difluoro-4-((1R,3R)-6-fluoro-3-methyl-2-(2,2,2-trifluoroethyl)-2,3,4,9-tetrahydro-1H-pyrido[3,4-b]indol-1-yl)phenyl)-1-(3-fluoropropyl)pyrrolidin-3-amine], the IC50 in series [1] was > 100 µM; in series [2], 34.1 µM; in series [3], 15.7 µM; in series [4] it was 20 µM; in series [7], 2.82 µM. Also, the area under the curve AUC(0-t) in series [5] (iv, i.v. (2.5 mg/kg)) was found to be 2070 ± 294 ng·h/mL; in series [5] (po, i.g. (10 mg/kg)), 4560 ± 1040 ng·h/mL; in series [6] (iv, i.v. (5 mg/kg)), 3810 ng·h/mL; in series [6] (po, i.g. (10 mg/kg)) it was 5650 ng·h/mL. Besides, the clearance worked out at 16.9 ± 4 mL/min/kg in series [5] (iv, i.v. (2.5 mg/kg)) and 15 mL/min/kg in series [6] (iv, i.v. (5 mg/kg)). Further, the Vd in series [5] (iv, i.v. (2.5 mg/kg)) turned out to be 12.2 ± 1.5 L/kg; in series [6] (iv, i.v. (5 mg/kg)), 18.2 L/kg. In addition, the bioavailability in series [5] (po, i.g. (10 mg/kg)) was found to be 55 ± 13%; in series [6] (po, i.g. (10 mg/kg)), 74.3%. In addition, the inhibition at 40 µM in series [7] worked out at 100 ± 1.79%.

For the compound `C[C@@H]1Cc2c([nH]c3cc(F)ccc23)[C@@H](c2c(F)cc(N[C@H]3CCN(CCCF)C3)cc2F)N1CC(F)(F)F` [Compound 32, (S)—N-(3,5-difluoro-4-((1R,3R)-7-fluoro-3-methyl-2-(2,2,2-trifluoroethyl)-2,3,4,9-tetrahydro-1H-pyrido[3,4-b]indol-1-yl)phenyl)-1-(3-fluoropropyl)pyrrolidin-3-amine], the IC50 in series [1] was > 100 µM; in series [2], 23.4 µM; in series [3], 18.9 µM; in series [4] it was 19.5 µM; in series [7], 4.14 µM. In addition, the area under the curve AUC(0-t) in series [5] (iv, i.v. (2.5 mg/kg)) was 853 ± 48 ng·h/mL; in series [5] (po, i.g. (10 mg/kg)) it was 1970 ± 469 ng·h/mL; in series [6] (iv, i.v. (5 mg/kg)), 3360 ng·h/mL; in series [6] (po, i.g. (10 mg/kg)), 4410 ng·h/mL. For the same compound, the clearance was determined as 39.2 ± 2.8 mL/min/kg in series [5] (iv, i.v. (2.5 mg/kg)) and 16.3 mL/min/kg in series [6] (iv, i.v. (5 mg/kg)). The Vd in series [5] (iv, i.v. (2.5 mg/kg)) came out at 31.4 ± 5.9 L/kg; in series [6] (iv, i.v. (5 mg/kg)), 21.6 L/kg. The bioavailability is 57.6 ± 14% in series [5] (po, i.g. (10 mg/kg)) and 65.6% in series [6] (po, i.g. (10 mg/kg)). Also, the inhibition at 40 µM in series [7] was determined as 100.2 ± 0.74%.

Take `C#Cc1ccc2c3c([nH]c2c1)[C@@H](c1c(F)cc(N[C@H]2CCN(CCCF)C2)cc1F)N(CC(F)(F)F)[C@H](C)C3` [Compound 43, (S)—N-(4-((1R,3R)-7-ethynyl-3-methyl-2-(2,2,2-trifluoroethyl)-2,3,4,9-tetrahydro-1H-pyrido[3,4-b]indol-1-yl)-3,5-difluorophenyl)-1-(3-fluoropropyl)pyrrolidin-3-amine]: the IC50 was 41.6 µM in series [1]; 21.5 µM in series [2]; > 12.7 µM in series [3]; > 42.8 µM in series [4]; 12.3 µM in series [7]. The exposure AUC(0-t) in series [5] (iv, i.v. (2.5 mg/kg)) came to 1570 ± 143 ng·h/mL; in series [5] (po, i.g. (10 mg/kg)), 3200 ± 129 ng·h/mL; in series [6] (iv, i.v. (5 mg/kg)), 10200 ng·h/mL; in series [6] (po, i.g. (10 mg/kg)), 10200 ng·h/mL. Also, the clearance in series [5] (iv, i.v. (2.5 mg/kg)) turned out to be 20.8 ± 2 mL/min/kg; in series [6] (iv, i.v. (5 mg/kg)), 8.21 mL/min/kg. The Vd in series [5] (iv, i.v. (2.5 mg/kg)) was 18.1 ± 2.1 L/kg; in series [6] (iv, i.v. (5 mg/kg)), 16.6 L/kg. In addition, the bioavailability came to 51 ± 2.1% in series [5] (po, i.g. (10 mg/kg)) and 50.2% in series [6] (po, i.g. (10 mg/kg)). The inhibition at 40 µM in series [7] was 98.28 ± 0.93%.

What is called IC50 is the point on the concentration scale where inhibition reaches its midpoint. By AUC(0-t) is commonly meant exposure summed from dosing to a finite time, without extrapolation to infinity. Read a low AUC(0-t) as less exposure. The clearance is the volume of plasma or blood freed of the substance per unit of time. A low value points to a low capacity for elimination. For orientation: bioavailability means dose-corrected exposure relative to a reference, in per cent. Low values mean little systemic uptake, high ones much systemic uptake.

(Values after US20240208932A1, “ARYLAMINO DERIVATIVE ESTROGEN RECEPTOR MODULATOR AND USE THEREOF” (XIZANG HAISCO PHARMACEUTICAL CO., LTD., priority 2021, published 2024).)
